Experiments:
clinical = conditions: human, in vivo
HMG-CoA reductase [1] = conditions: human, in vivo
HMG-CoA reductase [2] = conditions: following intraduodenal administration of dihydroxy open acid simvastatin

effect of itraconazole measured as the unchanged drug (clinical): 1.5 fold | Tmax (clinical; SVA in plasma): 4.1 h | Tmax (clinical; Simyastatin Acid in plasma): 4.1 ± 2.1 h | half-life (clinical; t1/2, SV in plasma): 6.7 h | half-life (clinical; t1/2, SVA in plasma): 2.3 h | half-life (clinical; t1/2, Simyastatin Acid in plasma): 2.3 ± 0.5 h | Cmax, Active Inhibitors (HMG-CoA reductase [1]): 5.7 = 3.0 ng eq/mL | Tmax, Active HMG-CoA reductase inhibitors (HMG-CoA reductase [1]): 3.6 (2.5) hr | change by itraconazole pre-treatment in AUC and Cmax of HMG-CoA reductase inhibitory activity (total or active) (HMG-CoA reductase [1]): 1.3-1.5 fold | lactonization of dihydroxy open acid simvastatin or its active metabolites (HMG-CoA reductase [2]): occurred minimally
SMILES: CCC(C)(C)C(=O)O[C@H]1C[C@@H](C)C=C2C=C[C@H](C)[C@H](CC[C@@H](O)C[C@@H](O)CC(=O)O)[C@H]21 [SVA, dihydroxy open acid simvastatin]

From patent EP1036783B1 (MERCK & CO. INC., priority 1999, dated 2000)
